Test results: paper PMC6738653, “The (p)ppGpp-binding GTPase Era promotes rRNA processing and cold adaptation in Staphylococcus aureus” (PLoS Genetics, 2019)

Experiments:
Era = molecular target: T1, Era (Staphylococcus aureus, UniProt Q2FY06); experiment: DRaCALA with […]-ppGpp; type: binding
T1 sequence (Q2FY06 1-299): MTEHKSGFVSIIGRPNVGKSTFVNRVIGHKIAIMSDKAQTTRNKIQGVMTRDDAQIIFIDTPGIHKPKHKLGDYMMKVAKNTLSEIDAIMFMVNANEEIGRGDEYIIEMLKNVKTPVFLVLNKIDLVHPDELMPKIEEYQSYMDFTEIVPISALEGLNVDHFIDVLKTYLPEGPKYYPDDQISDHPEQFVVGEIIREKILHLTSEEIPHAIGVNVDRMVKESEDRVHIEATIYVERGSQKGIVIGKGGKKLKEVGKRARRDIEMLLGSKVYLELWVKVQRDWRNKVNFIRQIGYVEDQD

[1] = molecular target: Era fused to the SB (small bit of luciferase) (S. aureus); experiment: split reporter (BiFC, NanoBiT); split luciferase (SB and LB fusions from pAP118) in S. aureus LAC*; 100 ng/ml Atet for 90 min, normalised to OD600 0.1, Nano-Glo Luciferase Assay; positive only if increased over both negative controls

Row | fold increase in luciferase activity upon co-expression [1] | Molecule | Kd (Era)
1 | – | Nc1nc2c(ncn2[C@@H]2O[C@H](COP(=O)(O)OP(=O)(O)O)[C@@H](OP(=O)(O)OP(=O)(O)O)[C@H]2O)c(=O)[nH]1 [ppGpp] | 3.1 ± 0.4 µM
2 | 4 fold | full-length CshA fused to LB (large bit of luciferase) (natural protein) | –
